Results as given in the supplement of paper PMC11061612.

Tests used:
[1] = compound: C1CN(CCC1(C(=O)N[C@@H](CCO)C2=CC=C(C=C2)Cl)N)C3=NC=NC4=C3C=CN4 [Capivasertib]; details: max 10 µM
In short: (§1)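 Cancer cell lines were seeded in 1536-well plates in 7.5 μl DMEM/F12 or RPMI with 10% FBS, held 24 hours at 37°C and 5% CO2, then dosed for 72 hours (final DMSO typically 0.2%). Viability was read by CellTiter-Glo 2.0 luminescence and scaled between blank-well and DMSO-well means. The single-agent IC50 comes from dose responses fitted to a two-parameter logistic curve with a non-linear mixed effects model.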

[2] = compound: C=CCn1c(=O)c2cnc(Nc3ccc(N4CCN(C)CC4)cc3)nc2n1-c1cccc(C(C)(C)O)n1 [AZD1775]; details: max 3 µM
In short: as §1

[3] = compound: CC(=O)Nc1cccc(-n2c(=O)n(C3CC3)c(=O)c3c(Nc4ccc(I)cc4F)n(C)c(=O)c(C)c32)c1 [Trametinib]; details: max 1 µM
In short: as §1

[4] = compound: CC(=O)c1c(C)c2cnc(Nc3ccc(N4CCNCC4)cn3)nc2n(C2CCCC2)c1=O [Palbociclib]; details: max 10 µM
In short: as §1

[5] = compound: CC(C)n1c(=O)n(C)c2cnc3cc(F)c(-c4ccc(OCCCN5CCCCC5)nc4)cc3c21 [AZD1390]; details: max 0.3 µM
In short: as §1

[6] = compound: CC1(C)CCC(CN2CCN(c3ccc(C(=O)NS(=O)(=O)c4ccc(NCC5CCOCC5)c([N+](=O)[O-])c4)c(Oc4cnc5[nH]ccc5c4)c3)CC2)=C(c2ccc(Cl)cc2)C1 [Venetoclax]; details: max 1 µM
In short: as §1

[7] = compound: CC1=C(C(=CC=C1)Cl)NC(=O)C2=CN=C(S2)NC3=CC(=NC(=N3)C)N4CCN(CC4)CCO [Dasatinib]; details: max 2 µM
In short: as §1

[8] = compound: CC1=CN2[C@@H](C1)C=NC3=CC(=C(C=C3C2=O)OC)OCCCCCOC4=C(C=C5C(=C4)N=C[C@@H]6CC(=CN6C5=O)C)OC [SG3199]; details: max 0.001 µM
In short: as §1

[9] = compound: CCN(CCO)CCCOc1ccc2c(Nc3cc(CC(=O)Nc4cccc(F)c4)[nH]n3)ncnc2c1 [AZD2811]; details: max 1 µM
In short: as §1

[10] = compound: CCc1c2c(nc3ccc(O)cc13)-c1cc3c(c(=O)n1C2)COC(=O)[C@]3(O)CC [SN-38]; details: max 0.3 µM
In short: as §1

[11] = compound: CN(C)CCCOc1ccc(-c2ccc3ncc4c(c3c2)n(C2CCOCC2)c(=O)n4C)cn1 [AZD0156]; details: max 3 µM
In short: as §1

[12] = compound: CN(CC[C@H](CSC1=CC=CC=C1)NC2=C(C=C(C=C2)S(=O)(=O)NC(=O)C3=CC=C(C=C3)N4CCC(CC4)[C@H](C5=CC=CC=C5C6=CC=C(C=C6)Cl)O)S(=O)(=O)C(F)(F)F)CCO [AZD4320]; details: max 1 µM
In short: as §1

[13] = compound: COc1cc(Nc2ncc3c(n2)-c2ccc(Cl)cc2C(c2c(F)cccc2OC)=NC3)ccc1C(=O)O [Alisertib]; details: max 10 µM
In short: as §1

[14] = compound: COc1cc2ncnc(Nc3ccc(F)c(Cl)c3)c2cc1OCCCN1CCOCC1 [Gefitinib]; details: max 10 µM
In short: as §1

[15] = compound: COc1cccc(OCCCN)c1-c1cc(Nc2cnc(C#N)cn2)n[nH]1 [Prexasertib]; details: max 1 µM
In short: as §1

[16] = compound: COc1cccc2c1C(=O)c1c(O)c3c(c(O)c1C2=O)C[C@@](O)(C(=O)CO)C[C@@H]3O[C@H]1C[C@H](N)[C@H](O)[C@H](C)O1 [Doxorubicin]; details: max 1 µM
In short: as §1

[17] = compound: COc1nnc2ccc(N3CCC(c4ccc(OCCN5CCN(C)C(=O)[C@H]5C)cc4)CC3)nn12 [AZD5153]; details: max 1 µM
In short: as §1

[18] = compound: CS(=O)(=O)CCNCc1ccc(-c2ccc3ncnc(Nc4ccc(OCc5cccc(F)c5)c(Cl)c4)c3c2)o1 [Lapatinib]; details: max 10 µM
In short: as §1

[19] = compound: C[C@@H](Nc1cc(F)cc(F)c1)c1cc(C(=O)N(C)C)cc2c(=O)cc(N3CCOCC3)oc12 [AZD8186]; details: max 3 µM
In short: as §1

[20] = compound: C[C@@H](Oc1cc(-c2cnn(C3CCNCC3)c2)cnc1N)c1c(Cl)ccc(F)c1Cl [Crizotinib]; details: max 10 µM
In short: as §1

[21] = compound: C[C@@H](c1ccc2nccn2c1)n1nnc2ncc(-c3cnn(C)c3)nc21 [Savolitinib]; details: max 1 µM
In short: as §1

[22] = compound: C[C@@H]1COCCN1C2=NC(=NC(=C2)C3(CC3)[S@](=N)(=O)C)C4=C5C=CNC5=NC=C4 [AZD6738]; details: max 10 µM
In short: as §1

[23] = compound: Cc1c2c(nn1C)CSCc1cc(n(C)n1)CSc1cc(c3ccccc3c1)OCCCc1c(C(=O)O)n(C)c3c-2c(Cl)ccc13 [AZD5991]; details: max 1 µM
In short: as §1

[24] = compound: Cc1cc2ncnn2cc1Nc1ncc2c(n1)n(C1CCOCC1)c(=O)n2C [AZD7648]; details: max 10 µM
In short: as §1

[25] = compound: Cc1nc(-c2cn3c(n2)-c2ccc(-c4cnn(C(C)(C)C(N)=O)c4)cc2OCC3)n(C(C)C)n1 [Taselisib]; details: max 10 µM
In short: as §1

[26] = compound: Cn1cnc2c(F)c(Nc3ccc(Br)cc3Cl)c(C(=O)NOCCO)cc21 [Selumetinib]; details: max 10 µM
In short: as §1

[27] = compound: NC1(c2ccc(-c3nc4ccn5c(=O)[nH]nc5c4cc3-c3ccccc3)cc2)CCC1 [MK-2206]; details: max 10 µM
In short: as §1

[28] = compound: O=C(c1cc(Cc2n[nH]c(=O)c3ccccc23)ccc1F)N1CCN(C(=O)C2CC2)CC1 [Olaparib]; details: max 10 µM
In short: as §1

| Cell Line | IC50, cell viability 72 h [1] [nM] | IC50, cell viability 72 h [2] [nM] | IC50, cell viability 72 h [3] [nM] | IC50, cell viability 72 h [4] [nM] | IC50, cell viability 72 h [5] [nM] | IC50, cell viability 72 h [6] [nM] | IC50, cell viability 72 h [7] [nM] | IC50, cell viability 72 h [8] [nM] | IC50, cell viability 72 h [9] [nM] | IC50, cell viability 72 h [10] [nM] | IC50, cell viability 72 h [11] [nM] | IC50, cell viability 72 h [12] [nM] | IC50, cell viability 72 h [13] [nM] | IC50, cell viability 72 h [14] [nM] | IC50, cell viability 72 h [15] [nM] | IC50, cell viability 72 h [16] [nM] | IC50, cell viability 72 h [17] [nM] | IC50, cell viability 72 h [18] [nM] | IC50, cell viability 72 h [19] [nM] | IC50, cell viability 72 h [20] [nM] | IC50, cell viability 72 h [21] [nM] | IC50, cell viability 72 h [22] [nM] | IC50, cell viability 72 h [23] [nM] | IC50, cell viability 72 h [24] [nM] | IC50, cell viability 72 h [25] [nM] | IC50, cell viability 72 h [26] [nM] | IC50, cell viability 72 h [27] [nM] | IC50, cell viability 72 h [28] [nM] |
| --- | --- | --- | --- | --- | --- | --- | --- | --- | --- | --- | --- | --- | --- | --- | --- | --- | --- | --- | --- | --- | --- | --- | --- | --- | --- | --- | --- | --- |
| MCF7 (Breast Carcinoma) | 8440 | > 3000 | > 1000 | > 10000 | > 300 | > 1000 | > 2000 | > 1 | > 1000 | 53.2 | > 3000 | > 1000 | > 10000 | > 10000 | > 1000 | > 1000 | 343 | > 10000 | > 3000 | > 10000 | > 1000 | 6710 | 838 | > 10000 | 1390 | > 10000 | 8680 | > 10000 |
| NCI-H1688 (Small Cell Lung Carcinoma) | > 10000 | 2540 | > 1000 | > 10000 | > 300 | > 1000 | > 2000 | > 1 | > 1000 | > 300 | > 3000 | > 1000 | > 10000 | > 10000 | 533 | > 1000 | > 1000 | > 10000 | > 3000 | > 10000 | > 1000 | > 10000 | > 1000 | > 10000 | 8310 | > 10000 | > 10000 | > 10000 |
